These are literature values, as cited in patent US20120220630A1, “PRUCALOPRIDE ORAL SOLUTION” (Shire-Movetis NV, priority 2011, published 2012).

Molecules are shown by their SMILES.

For one series, the target named is 5-HT2A receptors (Homo sapiens, UniProt P28223).
The target in a further series is 5-HT4 receptors (Homo sapiens, UniProt Q13639).
In series [1] the test system is colonic motility and defecation. As to conditions: in animals.

Sequence of 5-HT4 receptors (Q13639 whole entry): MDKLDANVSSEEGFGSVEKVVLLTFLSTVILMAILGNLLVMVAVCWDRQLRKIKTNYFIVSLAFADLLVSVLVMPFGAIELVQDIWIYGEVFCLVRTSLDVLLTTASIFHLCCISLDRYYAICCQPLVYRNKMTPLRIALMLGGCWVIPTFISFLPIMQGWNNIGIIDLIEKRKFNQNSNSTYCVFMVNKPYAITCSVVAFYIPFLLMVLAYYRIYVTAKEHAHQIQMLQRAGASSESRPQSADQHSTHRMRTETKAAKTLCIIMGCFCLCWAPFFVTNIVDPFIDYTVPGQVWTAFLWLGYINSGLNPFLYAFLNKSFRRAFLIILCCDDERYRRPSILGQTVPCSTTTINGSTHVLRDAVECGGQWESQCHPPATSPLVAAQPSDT
Sequence of 5-HT2A receptors (P28223 whole entry): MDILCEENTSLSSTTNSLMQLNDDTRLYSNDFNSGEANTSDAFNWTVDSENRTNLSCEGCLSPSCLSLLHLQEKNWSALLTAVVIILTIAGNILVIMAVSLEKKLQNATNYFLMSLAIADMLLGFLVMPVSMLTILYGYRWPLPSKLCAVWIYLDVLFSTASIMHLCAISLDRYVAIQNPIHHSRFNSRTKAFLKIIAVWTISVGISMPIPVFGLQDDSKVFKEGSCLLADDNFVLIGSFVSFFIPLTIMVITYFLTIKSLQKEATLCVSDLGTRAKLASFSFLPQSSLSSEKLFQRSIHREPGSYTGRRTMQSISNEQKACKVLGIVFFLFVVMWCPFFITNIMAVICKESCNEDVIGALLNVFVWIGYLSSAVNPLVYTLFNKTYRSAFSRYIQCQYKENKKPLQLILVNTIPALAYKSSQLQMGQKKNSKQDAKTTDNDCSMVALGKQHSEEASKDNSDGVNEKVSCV

Consider `COCCCN1CCC(NC(=O)c2cc(Cl)c(N)c3c2OCC3)CC1` [Prucalopride, 4-amino-5-chloro-2,3-dihydro-N-[1-(3-methoxypropyl)-4-piperidinyl]-7-benzofuran-carboxamide], for which the “affinity for 5-HT2A receptors” value on 5-HT2A receptors was “no affinity”. Moreover, the “affinity for 5-HT3 receptors” value in the series on 5-HT3 receptors is “no affinity”. Besides, at 5-HT4 receptors, the “agonism of 5-HT4 receptors” value was “potent and selective agonist”. Further, the “colonic motility and defecation” value in series [1] is “stimulates colonic motility and defecation”.
